Holding throughout (experiment): growth of human tumour cells (NCI), 48 h
For experiment [1], the system named is CCRF-CEM leukemia.
The subject of experiment [2] is HT29 colon.
Experiment [3] relates to K-562 leukemia.
Experiment [4] relates to NCI-H23 lung.
The test system of experiment [5] is NCI-H522 lung.
For experiment [6], the system named is SF-295 CNS.
The test system of experiment [7] is SW-620 colon.
For experiment [8], the system named is DU-145 prostate.
Experiment [9] relates to MCF7 breast.
The subject of experiment [10] is HS 578T breast.

The record followed here is PubChem BioAssay (NCI).

Where “and” joins values, the source holds several entries; their conditions need not be identical. Equal values may be shown once.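 Following 48 hours of exposure in 96-well plates, responses at five concentrations were used to interpolate endpoints linearly. Here, GI50 denotes the concentration required for 50% inhibition of growth. The concentration for full growth arrest is given as TGI.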

Consider `CCOC(=O)NN1C(=O)C(=P(c2ccccc2)(c2ccccc2)c2ccccc2)C(C(=O)OC)=C1C`, for which the TGI in experiment [1], in experiment [2], in experiment [3], in [4], in experiment [5] and in experiment [6] was greater than 100 µM throughout. Further, the TGI in experiment [7] was greater than 100 µM.
For the compound `Cc1nc(Nc2ccc(Cl)cc2)sc1C(=O)Nc1cccc2c(=O)[nH][nH]c(=O)c12`, the TGI in experiment [1] was determined as 79.5 µM; in [2] it was 41.6 µM; in experiment [3], 47.3 µM; in experiment [4], 40.5 µM; in experiment [5] it was 75.5 µM; in experiment [6], 74.3 µM. In experiment [7], the TGI is greater than 100 µM.
On to `COc1ccccc1/C=C(\NC(=O)c1ccccc1)c1nc2ccccc2[nH]1`, for which the TGI in [1], in experiment [2], in experiment [3], in [4], in [5] and in experiment [7] was greater than 100 µM throughout.
For `O=C(NCCCN1CCN(CCCNC(=O)Nc2cc(Cl)ccc2Cl)CC1)Nc1cc(Cl)ccc1Cl`, the TGI in [1], in experiment [2], in experiment [3], in experiment [4], in [5] and in [6] was greater than 100 µM in each case. In experiment [7], this compound yielded a TGI greater than 100 µM.
`Cc1cc(O)c2c(c1)OC1(C)CCC3C(C)(C)CCCC34COC2C14` (stereo not given): the TGI in experiment [1] amounted to 42.7 µM; in experiment [3], 46.3 µM; in [4], 35.9 µM; in experiment [5] it was 34.6 µM; in [6], 28.3 µM; in experiment [7], 30 µM.
Regarding `COC(=O)CCC(NC(=S)N/N=C(\C)c1cccs1)C(=O)OC` (stereo not given), the TGI in [2], in experiment [3], in experiment [4], in experiment [5], in experiment [6] and in experiment [7] was greater than 100 µM each time.
`Nc1ccccc1SC(/C=C/NNC1=NC(c2ccccc2)C(c2ccccc2)=NN1)c1ccccc1` (stereo not given): the TGI came out at 7.94 µM in experiment [1]; 34.8 µM in experiment [2]; 35.7 µM in experiment [3]; 21.4 µM in [4]; 14.5 µM in experiment [5]; 24.5 µM in [6]. The TGI in experiment [7] amounted to 29.1 µM.
With `Cc1cccc(C=NC23CC4CC(CC(C4)C2)C3)c1`, the TGI in experiment [1], in experiment [2], in experiment [3], in experiment [4], in experiment [5] and in experiment [6] was greater than 100 µM in each case. This compound also came in with a TGI in [7] greater than 100 µM.
On to `CCNC(=O)COc1ccc(Cl)c(C)c1`, for which the TGI in [1], in experiment [2], in [3], in experiment [4], in [5] and in experiment [6] was greater than 100 µM in each case. Further, the TGI in [7] is greater than 100 µM.
`N.N.N.N.O=S([O-])[O-].[Co+3].[N-]=[N+]=[N-]`: the GI50 in experiment [1] is greater than 100 µM; in experiment [2], greater than 100 µM; in experiment [3], greater than 100 µM; in experiment [4] it was greater than 100 µM; in [5], 42.3 µM; in experiment [6], greater than 100 µM. The GI50 in experiment [7] is greater than 100 µM. Moreover, the TGI in [1], in experiment [2], in experiment [3], in experiment [4], in [5] and in experiment [6] was greater than 100 µM throughout. In addition, the TGI in experiment [7] is greater than 100 µM.
For the compound `C/C(=N/NC(N)=S)C(CN1CCOCC1)C(C1=C(O)c2ccccc2OC1)c1ccccc1` (stereo not given), the TGI in experiment [1], in [8], in experiment [2], in [3], in [4] and in [5] was greater than 100 µM throughout. Also, the TGI in [6] and in experiment [7] was greater than 100 µM throughout.
Consider `NCCOCCOCC(=O)O`, for which the TGI in experiment [2], in experiment [3], in experiment [4], in experiment [5], in [6] and in experiment [7] was greater than 100 µM each time.
For `O=C1c2ccccc2-c2c1c1ccccc1c(=O)n2CCNCCNCCNCCNCCn1c2c(c3ccccc3c1=O)C(=O)c1ccccc1-2`, the GI50 was 0.125 µM in [1]; 0.161 µM in [8]; 0.0986 µM in experiment [2]; 0.0462 µM in experiment [3]; 0.0501 µM in [9]; 0.615 µM in [4]. Moreover, the GI50 in [5] is 0.0202 µM; in [7], 0.0405 µM. Moreover, the TGI in experiment [1] is 2.65 µM; in experiment [8], 1.57 µM; in [2], 4.07 µM; in [9] it was 1.71 µM; in experiment [4], 2.75 µM; in experiment [5], 0.474 µM. In [7], this compound yielded a TGI of 1.17 µM.
Regarding `Cn1cnnc1Sc1c([N+](=O)[O-])nc(-c2ccc([N+](=O)[O-])cc2)n1C`, the TGI was 33.7 µM in [1]; 34.3 µM in experiment [2]; 53.2 µM in experiment [3]; 32.4 µM in [4]; 19.7 µM in [5]; greater than 100 µM in experiment [6]. The TGI in experiment [7] is 31.3 µM.
Turning to `COC(OC)c1cccnc1C`, the TGI in [1], in [2], in experiment [3], in experiment [4], in experiment [5] and in experiment [6] was greater than 100 µM each time. In experiment [7], this compound yielded a TGI greater than 100 µM.
As to `COc1c2c(c(O)c3c4c(c(C)cc13)C1OC3(C(OC)OC5CC(C)(O)C(OC6CC(C)(O)C(O)C(C)O6)C(C)O5)OC1C(OC)(O4)C31CO1)C(=O)C(O)CC2OC1CC(C)(O)C(OC(C)=O)C(C)O1` (stereo not given), the TGI in experiment [3] was 1.66 µM; in [4] it was less than 0.01 µM; in [5] it was less than 0.01 µM; in [6] it was less than 0.023 µM; in [7], 1.23 µM.
Consider `O=C(Cc1nc2ccccc2s1)C(=O)Nc1cccc(C(F)(F)F)c1`, for which the TGI in [1], in experiment [2], in [4], in experiment [5], in experiment [6] and in experiment [7] was greater than 100 µM throughout.
With `Cc1c(-c2ccc(-c3ccccc3F)cc2)nc2ccc(F)cc2c1C(=O)O`, the GI50 was 0.0742 µM and 0.557 µM in [1]; 0.867 µM and 1.18 µM in experiment [8]; 0.639 µM and 0.5 µM in [2]; 0.445 µM and 0.979 µM in [9]; 17.4 µM and 35.1 µM in experiment [4]; 9.89 µM and 67.3 µM in experiment [5]. The GI50 in experiment [6] is 0.163 µM and 1.37 µM; in [7], 0.488 µM and 1.16 µM. Moreover, the TGI in [1] is 190 µM and 684 µM; in [8], 119 µM and 343 µM; in experiment [2], 142 µM and 235 µM; in experiment [3], 211 µM and 401 µM; in [9] it was 170 µM and 405 µM; in experiment [4], 173 µM and 529 µM. The TGI in [5] is 93.8 µM and 434 µM; in [6], 43.6 µM and 48.6 µM and 210 µM; in [7], 139 µM and 577 µM.
On to `C[C@]12CC[C@H](OC(=O)Nc3ccccc3)CC1=CC[C@@H]1C2CC[C@]2(C)/C(=N/OC(=O)Nc3ccccc3)CCC12` (stereo not given in full), for which the TGI in experiment [1], in [2], in experiment [3], in experiment [4], in experiment [6] and in experiment [7] was greater than 100 µM in each case.
On to `O=C1N=C2N=C(c3ccc(Cl)cc3)N(c3ccc(Cl)cc3)N2Sc2ccccc21`, for which the TGI in experiment [1], in [2], in [3], in experiment [4], in [5] and in experiment [6] was greater than 100 µM in each case. The compound also yielded a TGI in experiment [7] greater than 100 µM.
In the case of `O=C(Nc1ccccc1)N1C(c2ccccc2)=N[C@@H](c2ccccc2)[C@@H]1c1ccccc1`, the TGI in experiment [1] turned out to be 60 µM; in experiment [2], 31.6 µM; in [3] it was 50.9 µM; in experiment [4], 55.4 µM; in experiment [6], 62.7 µM; in experiment [7], 35.2 µM.
`C=C(c1ccccc1)c1cc2c(=O)[nH]ccc2n1C`: the TGI in experiment [1] was greater than 100 µM; in [3], 46.3 µM; in experiment [4], greater than 100 µM; in [5] it was 54.9 µM; in [6], 82.9 µM; in experiment [7] it was greater than 100 µM.
Consider `C/C(=C\c1ccccc1)C(=O)c1c(C)cc(C)cc1C`, for which the TGI in experiment [1], in experiment [2], in experiment [3], in experiment [4], in experiment [5] and in experiment [6] was greater than 100 µM throughout. In experiment [7], this compound returned a TGI greater than 100 µM.
In the case of `C[C@@H]1CC2(C[C@@H](C)C3[C@@H](CC4(C)CCCC5C6=CC(O)(CC[C@]34C)OC6=CC(=O)OC5(C)C)O2)OC1=O` (stereo not given in full), the TGI in experiment [3], in experiment [4], in experiment [5] and in [7] was greater than 100 µM throughout.
Consider `O=C(O)C1CC2C=CCC(C2)C1` (stereo not given), for which the TGI in [1], in [2], in experiment [3], in [4], in [5] and in experiment [6] was greater than 100 µM each time. The TGI in experiment [7] is greater than 100 µM.
`CN(C)C(=S)/N=c1\ssc(=Nc2ccccc2)n1-c1ccccc1`: the TGI in experiment [1] was greater than 100 µM; in experiment [2], greater than 100 µM; in experiment [3], greater than 100 µM; in [4], greater than 100 µM; in experiment [5], 34 µM; in experiment [6], greater than 100 µM. The TGI in [7] is greater than 100 µM.
With `COc1cccc(C=NC23CC4CC(CC(C4)C2)C3)c1`, the TGI in [1], in experiment [2], in experiment [3], in experiment [4], in experiment [5] and in experiment [6] was greater than 100 µM each time. Besides, in experiment [7], the TGI was greater than 100 µM.
Regarding `c1ccc(N2CCN(CCN3CCc4c([nH]c5ccccc45)C3c3cccnc3)CC2)cc1` (stereo not given), the TGI in experiment [1], in experiment [2], in [3], in [4], in experiment [5] and in experiment [6] was greater than 100 µM each time. Moreover, in experiment [7], the TGI was greater than 100 µM.
On to `CNC(=O)NCCCCC(NC(C)=O)C(=O)NCc1ccccc1` (stereo not given), for which the TGI in [1], in experiment [2], in experiment [4], in experiment [5], in experiment [6] and in experiment [7] was greater than 100 µM throughout.
`COc1ccc(/C=C(\C#N)c2cc(OC)c(OC)c(OC)c2)cc1`: the GI50 in [1] is 0.0361 µM; in experiment [10] it was 0.0359 µM; in experiment [2], 0.0251 µM; in experiment [3] it was less than 0.01 µM; in [9] it was 0.0272 µM; in [4], 0.0242 µM. For the same compound, the results for the GI50 in [5], in experiment [6] and in [7] were less than 0.01 µM, less than 0.0156 µM and 0.0282 µM, respectively. In addition, the TGI was greater than 43.5 µM in experiment [1]; greater than 100 µM in experiment [10]; 17.8 µM in [2]; greater than 100 µM in experiment [3]; greater than 50.3 µM in [9]; greater than 100 µM in [4]. In addition, the values for the TGI in experiment [5], in experiment [6] and in experiment [7] were 0.0268 µM, 50.7 µM and greater than 100 µM, respectively.
`Nc1ccc(C(=O)N/C(=C\c2ccc3c(c2)OCO3)c2nc3ccccc3s2)cc1`: the TGI in [1] worked out at 7.28 µM; in experiment [2], 25.8 µM; in experiment [3], 38 µM; in experiment [5] it was 28.5 µM; in experiment [6], 30.3 µM; in experiment [7] it was 23.6 µM.
Take `COc1ccc(OCC(=O)O)c2c1CCC(C)C2=O` (stereo not given): the TGI in experiment [1], in [2], in experiment [3], in [5], in experiment [6] and in experiment [7] was greater than 100 µM each time.
